Experimental data: patent US20210045385A1, “PYRIDAZINONE-SUBSTITUTED KETOXIMES AS HERBICIDES” (FMC Corporation, priority 2018, published 2021)

Tests used:
Format in all cases: in vivo
[1] = test system: Italian ryegrass (Lolium multiflorum); experiment: Test A preemergence, visual plant response rating; conditions: for Ryegrass, Italian plant response rating: 125 g ai/ha, preemergence, 0 to 100 scale, 0 no effect, 100 complete control; for Ryegrass, Italian plant response rating (0 to 100 scale): 500 g ai/ha Preemergence, approx. 10 days
Outline: (§1)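 Greenhouse pot test in loam–sand soil mix: compound in a surfactant-containing non-phytotoxic solvent applied preemergence (directed soil spray) or postemergence (one- to two-leaf plants, 2–10 cm). Injury scored visually after ~10 days, 0–100.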

[2] = test system: barnyardgrass (Echinochloa crus-galli); experiment: Test A preemergence, visual plant response rating; conditions: for Barnyardgrass plant response rating: 125 g ai/ha, preemergence, 0 to 100 scale, 0 no effect, 100 complete control; for Barnyardgrass plant response rating (0 to 100 scale): 500 g ai/ha Preemergence, approx. 10 days
Outline: as §1

[3] = test system: foxtail, giant (giant foxtail, Setaria faberii); experiment: Test A preemergence, visual plant response rating; conditions: for Foxtail, Giant plant response rating: 125 g ai/ha, preemergence, 0 to 100 scale, 0 no effect, 100 complete control; for Foxtail, Giant plant response rating (0 to 100 scale): 500 g ai/ha Preemergence, approx. 10 days
Outline: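 Preemergence: seeds in loam/sand blend given directed soil spray of compound in non-phytotoxic solvent with surfactant. Postemergence: plants 2–10 cm, one- to two-leaf stage, sprayed with same formulation. Visual injury rated vs untreated controls after ~10 days in greenhouse, 0 (no effect) to 100 (complete control).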

[4] = test system: kochia (Kochia scoparia); experiment: Test A preemergence, visual plant response rating; conditions: for Kochia plant response rating: 125 g ai/ha, preemergence, 0 to 100 scale, 0 no effect, 100 complete control; for Kochia plant response rating (0 to 100 scale): 500 g ai/ha Preemergence, approx. 10 days
Outline: as §1

[5] = test system: pigweed (Amaranthus retroflexus); experiment: Test A preemergence, visual plant response rating; conditions: for Pigweed plant response rating: 125 g ai/ha, preemergence, 0 to 100 scale, 0 no effect, 100 complete control; for Pigweed plant response rating (0 to 100 scale): 500 g ai/ha Preemergence, approx. 10 days
Outline: as §1

[6] = test system: ragweed (common ragweed, Ambrosia elatior); experiment: Test A preemergence, visual plant response rating; conditions: for Ragweed plant response rating: 125 g ai/ha, preemergence, 0 to 100 scale, 0 no effect, 100 complete control; for Ragweed plant response rating (0 to 100 scale): 500 g ai/ha Preemergence, approx. 10 days
Outline: as §1

[7] = test system: Italian ryegrass (Lolium multiflorum); experiment: Test A postemergence, visual plant response rating; conditions: for Ryegrass, Italian plant response rating (0 to 100 scale): 500 g ai/ha, postemergence, 0 is no effect, 100 is complete control; for Ryegrass, Italian plant response rating: Postemergence, 125 g ai/ha, 0 to 100 scale (0 no effect, 100 complete control)
Outline: as §1

[8] = test system: barnyardgrass (Echinochloa crus-galli); experiment: Test A postemergence, visual plant response rating; conditions: for Barnyardgrass plant response rating (0 to 100 scale): 500 g ai/ha, postemergence, 0 is no effect, 100 is complete control; for Barnyardgrass plant response rating: Postemergence, 125 g ai/ha, 0 to 100 scale (0 no effect, 100 complete control)
Outline: as §1

[9] = test system: blackgrass (Alopecurus myosuroides); experiment: Test A postemergence, visual plant response rating; conditions: for Blackgrass plant response rating (0 to 100 scale): 500 g ai/ha, postemergence, 0 is no effect, 100 is complete control; for Blackgrass plant response rating: Postemergence, 125 g ai/ha, 0 to 100 scale (0 no effect, 100 complete control)
Outline: as §1

[10] = test system: corn (Zea mays); experiment: Test A postemergence, visual plant response rating; conditions: for Corn plant response rating (0 to 100 scale): 500 g ai/ha, postemergence, 0 is no effect, 100 is complete control; for Corn plant response rating: Postemergence, 125 g ai/ha, 0 to 100 scale (0 no effect, 100 complete control)
Outline: as §1

[11] = test system: foxtail, giant (giant foxtail, Setaria faberii); experiment: Test A postemergence, visual plant response rating; conditions: for Foxtail, Giant plant response rating (0 to 100 scale): 500 g ai/ha, postemergence, 0 is no effect, 100 is complete control; for Foxtail, Giant plant response rating: Postemergence, 125 g ai/ha, 0 to 100 scale (0 no effect, 100 complete control)
Outline: as §1

[12] = test system: galium (catchweed bedstraw, Galium aparine); experiment: Test A postemergence, visual plant response rating; conditions: for Galium plant response rating (0 to 100 scale): 500 g ai/ha, postemergence, 0 is no effect, 100 is complete control; for Galium plant response rating: Postemergence, 125 g ai/ha, 0 to 100 scale (0 no effect, 100 complete control)
Outline: as §1

[13] = test system: kochia (Kochia scoparia); experiment: Test A postemergence, visual plant response rating; conditions: for Kochia plant response rating (0 to 100 scale): 500 g ai/ha, postemergence, 0 is no effect, 100 is complete control; for Kochia plant response rating: Postemergence, 125 g ai/ha, 0 to 100 scale (0 no effect, 100 complete control)
Outline: as §1

[14] = test system: pigweed (Amaranthus retroflexus); experiment: Test A postemergence, visual plant response rating; conditions: for Pigweed plant response rating (0 to 100 scale): 500 g ai/ha, postemergence, 0 is no effect, 100 is complete control; for Pigweed plant response rating: Postemergence, 125 g ai/ha, 0 to 100 scale (0 no effect, 100 complete control)
Outline: as §1

[15] = test system: ragweed (common ragweed, Ambrosia elatior); experiment: Test A postemergence, visual plant response rating; conditions: for Ragweed plant response rating (0 to 100 scale): 500 g ai/ha, postemergence, 0 is no effect, 100 is complete control; for Ragweed plant response rating: Postemergence, 125 g ai/ha, 0 to 100 scale (0 no effect, 100 complete control)
Outline: as §1

[16] = test system: wheat (Triticum aestivum); experiment: Test A postemergence, visual plant response rating; conditions: for Wheat plant response rating (0 to 100 scale): 500 g ai/ha, postemergence, 0 is no effect, 100 is complete control; for Wheat plant response rating: Postemergence, 125 g ai/ha, 0 to 100 scale (0 no effect, 100 complete control)
Outline: as §1

[17] = test system: barnyardgrass (Echinochloa crus-galli); experiment: Test B flooded paddy test, visual plant response rating; conditions: 250 g ai/ha, Flood, applied to paddy water, 2-leaf stage, evaluated after 13 to 15 days
Outline: (§2)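 Plants were raised to the 2-leaf stage, then pots were flooded to 3 cm above the soil and test compound was applied directly into the paddy water. Water depth was held for the whole test; after 13 to 15 days in a greenhouse, responses were scored visually against controls.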

[18] = test system: ducksalad (Heteranhera limosa); experiment: as above; conditions: 250 g ai/ha, Flood, applied to paddy water, 2-leaf stage, evaluated after 13 to 15 days
Outline: as §2

[19] = test system: rice (Oryza sativa); experiment: as above; conditions: 250 g ai/ha, Flood, applied to paddy water, 2-leaf stage, evaluated after 13 to 15 days
Outline: as §2

[20] = test system: sedge, umbrella (small-flower umbrella sedge, Cyperus difformis); experiment: as above; conditions: 250 g ai/ha, Flood, applied to paddy water, 2-leaf stage, evaluated after 13 to 15 days
Outline: as §2

SMILES | Ryegrass, Italian plant response rating [1] | Ryegrass, Italian plant response rating (0 to 100 scale) [1] | Barnyardgrass plant response rating [2] | Barnyardgrass plant response rating (0 to 100 scale) [2] | Foxtail, Giant plant response rating [3] | Foxtail, Giant plant response rating (0 to 100 scale) [3] | Kochia plant response rating [4] | Kochia plant response rating (0 to 100 scale) [4] | Pigweed plant response rating [5] | Pigweed plant response rating (0 to 100 scale) [5] | Ragweed plant response rating [6] | Ragweed plant response rating (0 to 100 scale) [6] | Ryegrass, Italian plant response rating (0 to 100 scale) [7] | Ryegrass, Italian plant response rating [7] | Barnyardgrass plant response rating (0 to 100 scale) [8] | Barnyardgrass plant response rating [8] | Blackgrass plant response rating (0 to 100 scale) [9] | Blackgrass plant response rating [9] | Corn plant response rating (0 to 100 scale) [10] | Corn plant response rating [10] | also measured
CCc1ccccc1C(=NOC)c1c(O)c(C)nn(C)c1=O [Compound 37] | 40 | 60 | 0 | 20 | 30 | 80 | 0 | 80 | 40 | 90 | 10 | 80 | 90 | 80 | 20 | 10 | 80 | 60 | 30 | 0 | Foxtail, Giant plant response rating (0 to 100 scale) [11]: 70; Foxtail, Giant plant response rating [11]: 30; Galium plant response rating (0 to 100 scale) [12]: 90; Galium plant response rating [12]: 80; Kochia plant response rating (0 to 100 scale) [13]: 80; Kochia plant response rating [13]: 60; Pigweed plant response rating (0 to 100 scale) [14]: 90; Pigweed plant response rating [14]: 70; Ragweed plant response rating (0 to 100 scale) [15]: 80; Ragweed plant response rating [15]: 60; Wheat plant response rating (0 to 100 scale) [16]: 10; Wheat plant response rating [16]: 0; Plant response rating, Barnyardgrass (0 to 100 scale, 0 is no effect, 100 is complete control) [17]: 0; Plant response rating, Ducksalad (0 to 100 scale, 0 is no effect, 100 is complete control) [18]: 0; Plant response rating, Rice (0 to 100 scale, 0 is no effect, 100 is complete control) [19]: 0; Plant response rating, Sedge, Umbrella (0 to 100 scale, 0 is no effect, 100 is complete control) [20]: 0
CON=C(c1c(O)c(C)nn(C)c1=O)c1cccc2cc(Br)ccc12 [Compound 96] | 30 | 100 | 60 | 80 | 70 | 100 | 20 | 100 | 80 | 100 | 90 | 100 | 80 | 80 | 30 | 20 | 100 | 90 | 30 | 10 | Foxtail, Giant plant response rating (0 to 100 scale) [11]: 70; Foxtail, Giant plant response rating [11]: 20; Galium plant response rating (0 to 100 scale) [12]: 90; Galium plant response rating [12]: 90; Kochia plant response rating (0 to 100 scale) [13]: 80; Kochia plant response rating [13]: 60; Pigweed plant response rating (0 to 100 scale) [14]: 90; Pigweed plant response rating [14]: 80; Ragweed plant response rating (0 to 100 scale) [15]: 100; Ragweed plant response rating [15]: 90; Wheat plant response rating (0 to 100 scale) [16]: 50; Wheat plant response rating [16]: 0; Plant response rating, Barnyardgrass (0 to 100 scale, 0 is no effect, 100 is complete control) [17]: 0; Plant response rating, Ducksalad (0 to 100 scale, 0 is no effect, 100 is complete control) [18]: 0; Plant response rating, Rice (0 to 100 scale, 0 is no effect, 100 is complete control) [19]: 0; Plant response rating, Sedge, Umbrella (0 to 100 scale, 0 is no effect, 100 is complete control) [20]: 0
CCO/N=C(/c1c(O)c(C)nn(C)c1=O)c1cc(Br)cc2ccccc12 [Compound 113, 4-[(E)-(3-bromo-1-naphthalenyl)(ethoxyimino)methyl]-5-hydroxy-2,6-dimethyl-3(2H)-pyridazinone] | 80 | 100 | 90 | 100 | 100 | 100 | 30 | 90 | 80 | 100 | 90 | 90 | 90 | 80 | 90 | 90 | 100 | 90 | 80 | 40 | Foxtail, Giant plant response rating (0 to 100 scale) [11]: 90; Foxtail, Giant plant response rating [11]: 90; Galium plant response rating (0 to 100 scale) [12]: 100; Galium plant response rating [12]: 100; Kochia plant response rating (0 to 100 scale) [13]: 90; Kochia plant response rating [13]: 60; Pigweed plant response rating (0 to 100 scale) [14]: 100; Pigweed plant response rating [14]: 100; Ragweed plant response rating (0 to 100 scale) [15]: 100; Ragweed plant response rating [15]: 90; Wheat plant response rating (0 to 100 scale) [16]: 60; Wheat plant response rating [16]: 50; Plant response rating, Barnyardgrass (0 to 100 scale, 0 is no effect, 100 is complete control) [17]: 85; Plant response rating, Ducksalad (0 to 100 scale, 0 is no effect, 100 is complete control) [18]: 75; Plant response rating, Rice (0 to 100 scale, 0 is no effect, 100 is complete control) [19]: 60; Plant response rating, Sedge, Umbrella (0 to 100 scale, 0 is no effect, 100 is complete control) [20]: 50
